Reference: patent publication US20110028566A1, “COMPOSITIONS AND PRODUCTS CONTAINING CYCLOALIPHATIC DIOL ANTIMICROBIAL AGENTS AND METHODS OF USING THE COMPOSITIONS AND PRODUCTS” (EASTMAN CHEMICAL COMPANY, priority 2009, published 2011)

Legend:
Experiment in all cases: Microbial challenge testing in BPW
Assay type in all cases: cell-based
[1] = tested on: Streptococcus mutans; details: for Grade code, S. mutans, 3 Day / Grade code, S. mutans, 13 Day / Grade code, S. mutans, 30 Days: BPW, w/v % in label, average of replicates
Description: (§1) The microorganisms used in challenge tests are given in Table 3, designated as either ATCC (American Type Culture Collection) or wild type. These wild type organisms were problematic organisms previously isolated from chemical products. In the description for each organism, the bacteria are indicated as either GN (Gram negative) or GP (Gram positive).
(§2) All of the microorganisms were grown in Tryptose Soy Broth (TSB), DIFCO™ available from Becton, Dickinson and Company, containing 1% dextrose. Aspergillus niger and Candida albicans were incubated at 22° C.±2° C. for at least 96 hours. All bacteria were incubated at 35° C.±2° C. in a humidified incubator for at least 96 hours.
(§3) The following procedure was followed to determine the amount of each challenge material (inoculum broth) required to produce a 10^8 cfu/mL challenge, which is equivalent to a final test-sample microbial concentration of 10^5 to 10^6 cfu (colony-forming units)/mL.
(§4) Using a sterile serological pipette, 1 mL of the growth from each TSB culture was transferred into tubes containing 9 mL phosphate buffer (pH 7.2) and mixed thoroughly. This process was repeated to make serial 1:10 dilutions. Then 0.1 mL of each sample and dilution was inoculated onto agar plates to produce the equivalent of a further 1:10 dilution. C. albicans and A. niger were inoculated onto SDA and bacteria were inoculated onto Plate Count Agar (PCA), DIFCO™ available from Becton, Dickinson and Company. The 0.1 mL aliquots were evenly distributed on the plates using the spread-plate technique. The spread-plate technique is performed by spreading the aliquot over the entire plate surface using a sterile spreading rod while rotating the plate with a rotary auto-plater. After the inoculum was absorbed completely, each plate was inverted and incubated (fungi at 22° C.±2° C. and bacteria at 35° C.±2° C.).
(§5) After incubation for at least 48 hours, colonies that had developed on the agar plates were counted and recorded with the corresponding dilution. If counting had to be delayed temporarily, plates were refrigerated, preferably no more than 24 hours, until they could be counted. The number of cfu/mL was determined by multiplying the count by the dilution factor for that particular plate.
(§6) Turbidity in Nepholemetric Turbidity Units (NTU) was measured for each serial dilution using the HF-Micro 100 Model Turbidimeter. For each microorganism, the plate counts were compared to the turbidity readings.
(§7) Control substrates (“broth alone”) were prepared for each microorganism separately in triplicate by adding 13.5 mL of BPW (pH 7.0) containing 1% (w/v) dextrose to each 20-mL glass tube; then adding 1.5 mL challenge material to produce a final concentration at time zero of 10^5 to 10^6 cfu/mL and a total volume of 15 mL.
(§8) Test sample substrates were prepared containing each test material (1,4-CHDM, etc) or combination of test materials at the concentrations shown in Tables 5 and 6. Sample substrates were prepared in triplicate, except those substrates containing PE or CG which were prepared in duplicate. Substrates were prepared by adding BPW containing 1% (w/v) dextrose to each 20-mL glass tube, then adding the test material in the amount appropriate to achieve the desired weight/volume percent (g/100 mL) and to obtain a total volume of BPW with dextrose and test material of 13.5 mL. Then 1.5 mL challenge material was added to produce a final concentration at time zero of 10^5 to 10^6 cfu/mL of the respective organism and a total test sample substrate volume of 15 mL.
(§9) After mixing, all challenged substrates were incubated at 35° C.±2° C. for 14 days and then at ambient room temperature.

[2] = tested on: Staphylococcus epidermidis; details: for Grade code, S. epidermidis, 3 Days / Grade code, S. epidermidis, 13 Days / Grade code, S. epidermidis, 30 Days: BPW, w/v % in label, average of replicates
Description: as §1, §2, §3, §4, §5, §6, §7, §8, §9

[3] = tested on: Pseudomonas aeruginosa
Description: as §1, §2, §3, §4, §5, §6, §7, §8, §9

[4] = 3 days incubation, listed as 0.5% AB
[5] = 3 days incubation, listed as 1.25% AB
[6] = 3 days incubation, listed as 2.5% AB
[7] = 13 days incubation, listed as 0.5% AB
[8] = 13 days incubation, listed as 1.25% AB
[9] = 13 days incubation, listed as 2.5% AB
[10] = 30 days incubation, listed as 0.5% AB
[11] = 30 days incubation, listed as 1.25% AB
[12] = 30 days incubation, listed as 2.5% AB

OCC1CCC(CO)CC1 (centres unmarked) [1,4-CHDM, 1,4-cyclohexanedimethanol]
Grade code S. mutans ([1]; 1.25%, 13 days incubation): 2 (52 to 100 colonies counted (thus 520 to 1000 cfu/mL))
Grade code S. mutans ([1]; 1.25%, 30 days incubation): 2 (52 to 100 colonies counted (thus 520 to 1000 cfu/mL))
Grade code S. mutans ([1]; 2.5%, 3 days incubation): 2 (52 to 100 colonies counted (thus 520 to 1000 cfu/mL))
Grade code S. mutans ([1]; 2.5%, 13 days incubation): 0 (No growth detected or <1 colony (thus <10 cfu/mL))
Grade code S. mutans ([1]; 2.5%, 30 days incubation): 0 (No growth detected or <1 colony (thus <10 cfu/mL))
Grade code, S. mutans, 3 Day [1, 4]: 4 (1001 to 10,000 colonies (thus 10,000 cfu/mL to 100,000 cfu/mL))
Grade code, S. mutans, 3 Day [1, 5]: 4 (1001 to 10,000 colonies (thus 10,000 cfu/mL to 100,000 cfu/mL))
Grade code, S. mutans, 3 Day [1, 6]: 2 (52 to 100 colonies counted (thus 520 to 1000 cfu/mL))
Grade code, S. mutans, 13 Day [1, 7]: 4 (1001 to 10,000 colonies (thus 10,000 cfu/mL to 100,000 cfu/mL))
Grade code, S. mutans, 13 Day [1, 8]: 2 (52 to 100 colonies counted (thus 520 to 1000 cfu/mL))
Grade code, S. mutans, 13 Day [1, 9]: 0 (No growth detected or <1 colony (thus <10 cfu/mL))
Grade code, S. mutans, 30 Days [1, 10]: 4 (1001 to 10,000 colonies (thus 10,000 cfu/mL to 100,000 cfu/mL))
Grade code, S. mutans, 30 Days [1, 11]: 2 (52 to 100 colonies counted (thus 520 to 1000 cfu/mL))
Grade code, S. mutans, 30 Days [1, 12]: 0 (No growth detected or <1 colony (thus <10 cfu/mL))
Grade code S. epidermidis ([2]; 0.5%, 3 days incubation): 4 (1001 to 10,000 colonies (thus 10,000 cfu/mL to 100,000 cfu/mL))
Grade code S. epidermidis ([2]; 0.5%, 13 days incubation): 4 (1001 to 10,000 colonies (thus 10,000 cfu/mL to 100,000 cfu/mL))
Grade code S. epidermidis ([2]; 0.5%, 30 days incubation): 4 (1001 to 10,000 colonies (thus 10,000 cfu/mL to 100,000 cfu/mL))
Grade code S. epidermidis ([2]; 1.25%, 3 days incubation): 2 (52 to 100 colonies counted (thus 520 to 1000 cfu/mL))
Grade code S. epidermidis ([2]; 1.25%, 13 days incubation): 0.7
Grade code S. epidermidis ([2]; 1.25%, 30 days incubation): 2 (52 to 100 colonies counted (thus 520 to 1000 cfu/mL))
Grade code S. epidermidis ([2]; 2.5%, 3 days incubation): 0.7
Grade code S. epidermidis ([2]; 2.5%, 13 days incubation): 0 (No growth detected or <1 colony (thus <10 cfu/mL))
Grade code S. epidermidis ([2]; 2.5%, 30 days incubation): 0 (No growth detected or <1 colony (thus <10 cfu/mL))
Grade code, S. epidermidis, 3 Days [2, 4]: 4 (1001 to 10,000 colonies (thus 10,000 cfu/mL to 100,000 cfu/mL))
Grade code, S. epidermidis, 3 Days [2, 5]: 2 (52 to 100 colonies counted (thus 520 to 1000 cfu/mL))
Grade code, S. epidermidis, 3 Days [2, 6]: 0.7
Grade code, S. epidermidis, 13 Days [2, 7]: 4 (1001 to 10,000 colonies (thus 10,000 cfu/mL to 100,000 cfu/mL))
Grade code, S. epidermidis, 13 Days [2, 8]: 0.7
Grade code, S. epidermidis, 13 Days [2, 9]: 0 (No growth detected or <1 colony (thus <10 cfu/mL))
Grade code, S. epidermidis, 30 Days [2, 10]: 4 (1001 to 10,000 colonies (thus 10,000 cfu/mL to 100,000 cfu/mL))
Grade code, S. epidermidis, 30 Days [2, 11]: 2 (52 to 100 colonies counted (thus 520 to 1000 cfu/mL))
Grade code, S. epidermidis, 30 Days [2, 12]: 0 (No growth detected or <1 colony (thus <10 cfu/mL))
Grade code P. aeruginosa ([3]; 0.5%, 3 days incubation): 4 (1001 to 10,000 colonies (thus 10,000 cfu/mL to 100,000 cfu/mL))
Grade code P. aeruginosa ([3]; 0.5%, 13 days incubation): 4 (1001 to 10,000 colonies (thus 10,000 cfu/mL to 100,000 cfu/mL))
Grade code P. aeruginosa ([3]; 0.5%, 30 days incubation): 4 (1001 to 10,000 colonies (thus 10,000 cfu/mL to 100,000 cfu/mL))
Grade code P. aeruginosa ([3]; 1.25%, 3 days incubation): 4 (1001 to 10,000 colonies (thus 10,000 cfu/mL to 100,000 cfu/mL))
Grade code P. aeruginosa ([3]; 1.25%, 13 days incubation): 3 (101 to 1000 colonies (thus 1000 to 10,000 cfu/mL))
Grade code P. aeruginosa ([3]; 1.25%, 30 days incubation): 4 (1001 to 10,000 colonies (thus 10,000 cfu/mL to 100,000 cfu/mL))
Grade code P. aeruginosa ([3]; 2.5%, 3 days incubation): 3 (101 to 1000 colonies (thus 1000 to 10,000 cfu/mL))
Grade code P. aeruginosa ([3]; 2.5%, 13 days incubation): 2 (52 to 100 colonies counted (thus 520 to 1000 cfu/mL))
Grade code P. aeruginosa ([3]; 2.5%, 30 days incubation): 0 (No growth detected or <1 colony (thus <10 cfu/mL))
